Test results: ChEMBL document CHEMBL1201862, “PubChem BioAssay data set” (2004)
Several values for one entry are separate records, joined by “and”; a condition that tells them apart may be missing. Equal values may be shown once.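 Exposure lasted 48 hours, with cells grown in 96-well plates and compounds tested at five concentrations. GI50 marks 50% less growth.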 Activity calls are given as the source filed them. Rule as the data show it: active = GI50 up to about 1.1 µM and inactive = higher.

How the values were obtained:
Assay in all cases: inhibition of tumour cell growth, NCI panel, 48 h
NCI-H23 = tested on: NCI-H23
UACC-62 = tested on: UACC-62
CAKI-1 = tested on: CAKI-1
HOP-62 = tested on: HOP-62
U-251 = tested on: U-251
SF-268 = tested on: SF-268
HCC 2998 = tested on: HCC 2998
OVCAR-4 = tested on: OVCAR-4
SK-MEL-5 = tested on: SK-MEL-5
SF-295 = tested on: SF-295
NCI-H226 = tested on: NCI-H226
COLO 205 = tested on: COLO 205
MDA-MB-435 = tested on: MDA-MB-435
SN12C = tested on: SN12C
SK-MEL-2 = tested on: SK-MEL-2
HOP-92 = tested on: HOP-92
ACHN = tested on: ACHN
RPMI-8226 = tested on: RPMI-8226
HCT-116 = tested on: HCT-116
SNB-19 = tested on: SNB-19
EKVX = tested on: EKVX
UACC-257 = tested on: UACC-257
HCT-15 = tested on: HCT-15
A498 = tested on: A498
M14 = tested on: M14
MDA-N = tested on: MDA-N
OVCAR-5 = tested on: OVCAR-5
MDA-MB-231 = tested on: MDA-MB-231
SK-MEL-28 = tested on: SK-MEL-28
SNB-75 = tested on: SNB-75
BT-549 = tested on: BT-549
T47D = tested on: T47D
MCF7 = tested on: MCF7
NCI/ADR-RES = tested on: NCI/ADR-RES
OVCAR-3 = tested on: OVCAR-3
NCI-H522 = tested on: NCI-H522
UO-31 = tested on: UO-31
PC-3 = tested on: PC-3
NCI-H460 = tested on: NCI-H460
786-0 = tested on: 786-0
SK-OV-3 = tested on: SK-OV-3
A549 = tested on: A549
Malme-3M = tested on: Malme-3M
KM12 = tested on: KM12
TK-10 = tested on: TK-10
IGROV-1 = tested on: IGROV-1
DU-145 = tested on: DU-145
K562 = tested on: K562
SR = tested on: SR
HT-29 = tested on: HT-29
OVCAR-8 = tested on: OVCAR-8
RXF 393 = tested on: RXF 393
SW-620 = tested on: SW-620
CCRF-CEM = tested on: CCRF-CEM
LOX IMVI = tested on: LOX IMVI
MOLT-4 = tested on: MOLT-4

Structure (SMILES): Oc1ccc(-c2c3c(nc4c2CCc2ccc(Br)cc2-4)-c2cc(Br)ccc2CC3)cc1
- GI50 (NCI-H23): 20.3 µM (inactive)
- GI50 (UACC-62): 21.3 µM (inactive)
- GI50 (CAKI-1): 17.7 µM (inactive)
- GI50 (HOP-62): 17.2 µM (inactive)
- GI50 (U-251): 17.5 µM (inactive)
- GI50 (SF-268): 21.7 µM (inactive)
- GI50 (HCC 2998): 20.7 µM (inactive)
- GI50 (OVCAR-4): 22.3 µM (inactive)
- GI50 (SK-MEL-5): 20.7 µM (inactive)
- GI50 (SF-295): 16.2 µM (inactive)
- GI50 (NCI-H226): 23.3 µM (inactive)
- GI50 (COLO 205): 17.2 µM (inactive)
- GI50 (MDA-MB-435): 20 µM (inactive)
- GI50 (SN12C): 20 µM (inactive)
- GI50 (SK-MEL-2): 16.8 µM (inactive)
- GI50 (HOP-92): 16 µM (inactive)
- GI50 (ACHN): 20.7 µM (inactive)
- GI50 (RPMI-8226): 26.9 µM (inactive)
- GI50 (HCT-116): 24.4 µM (inactive)
- GI50 (SNB-19): 23.6 µM (inactive)
- GI50 (EKVX): 22 µM (inactive)
- GI50 (UACC-257): 27 µM (inactive)
- GI50 (HCT-15): 18.9 µM
- GI50 (A498): 23.4 µM (inactive)
- GI50 (M14): 23.9 µM (inactive)
- GI50 (MDA-N): 18.6 µM (inactive)
- GI50 (OVCAR-5): 18 µM (inactive)
- GI50 (MDA-MB-231): 17.7 µM (inactive)
- GI50 (SK-MEL-28): 20.6 µM (inactive)
- GI50 (SNB-75): 23.9 µM (inactive)
- GI50 (BT-549): 24 µM (inactive)
- GI50 (T47D): 21.2 µM (inactive)
- GI50 (MCF7): 16.8 µM (inactive)
- GI50 (NCI/ADR-RES): 23 µM (inactive)
- GI50 (OVCAR-3): 15.1 µM (inactive)
- GI50 (NCI-H522): 25.6 µM (inactive)
- GI50 (UO-31): 18.7 µM (inactive)
- GI50 (PC-3): 17.9 µM (inactive)
- GI50 (NCI-H460): 22.5 µM (inactive)
- GI50 (786-0): 18.9 µM (inactive)
- GI50 (SK-OV-3): 16.5 µM (inactive)
- GI50 (A549): 19.8 µM (inactive)
- GI50 (Malme-3M): 25.8 µM (inactive)
- GI50 (KM12): 19.7 µM (inactive)
- GI50 (TK-10): 21.1 µM (inactive)
- GI50 (IGROV-1): 17 µM (inactive)
- GI50 (DU-145): 25.1 µM (inactive)

Structure (SMILES): COC(=O)C(Cc1ccccc1)NC(=O)C(CNC(=O)OCc1ccccc1)C(=O)OCc1ccccc1 (stereo not given)
- GI50 (NCI-H23): > 100 µM (inactive)
- GI50 (CAKI-1): 48.6 µM (inactive) and 64 µM (inactive)
- GI50 (U-251): 31.3 µM (inactive) and 46.7 µM (inactive)
- GI50 (HCC 2998): > 100 µM (inactive)
- GI50 (NCI-H226): 54.8 µM (inactive) and 57.5 µM (inactive)
- GI50 (COLO 205): 51.1 µM (inactive)
- GI50 (K562): > 100 µM (inactive)
- GI50 (SN12C): > 100 µM (inactive)
- GI50 (SK-MEL-2): > 100 µM (inactive) and 86.5 µM (inactive)
- GI50 (SR): > 100 µM (inactive) and 56.1 µM (inactive)
- GI50 (RPMI-8226): > 100 µM (inactive)
- GI50 (HCT-116): 70.3 µM (inactive) and 71 µM (inactive)
- GI50 (SNB-19): > 100 µM (inactive)
- GI50 (HCT-15): > 100 µM
- GI50 (A498): > 100 µM (inactive)
- GI50 (MDA-N): > 100 µM (inactive)
- GI50 (OVCAR-5): > 100 µM (inactive)
- GI50 (MDA-MB-231): 38.7 µM (inactive) and 23 µM (inactive)
- GI50 (SNB-75): 42.6 µM (inactive) and 21.8 µM (inactive)
- GI50 (HT-29): > 100 µM (inactive)
- GI50 (BT-549): > 100 µM (inactive)
- GI50 (OVCAR-8): > 100 µM (inactive)
- GI50 (T47D): 79.6 µM (inactive) and 47.8 µM (inactive)
- GI50 (MCF7): 30.2 µM (inactive) and 48.2 µM (inactive)
- GI50 (NCI/ADR-RES): > 100 µM (inactive)
- GI50 (OVCAR-3): 36.6 µM (inactive) and 32.3 µM (inactive)
- GI50 (NCI-H522): 29.4 µM (inactive) and 32.2 µM (inactive)
- GI50 (UO-31): > 100 µM (inactive) and 95.5 µM (inactive)
- GI50 (PC-3): 58.3 µM (inactive)
- GI50 (SK-OV-3): 59.7 µM (inactive)
- GI50 (RXF 393): 13.2 µM (inactive)
- GI50 (KM12): > 100 µM (inactive)
- GI50 (IGROV-1): 98.4 µM (inactive) and 60.3 µM (inactive)
- GI50 (DU-145): > 100 µM (inactive)

Structure (SMILES): O=C(OCC(Cl)(Cl)Cl)O[C@@H]1CCCC1(c1ccccc1)c1ccccc1
- GI50 (NCI-H23): 68.1 µM (inactive)
- GI50 (UACC-62): > 100 µM (inactive)
- GI50 (CAKI-1): > 100 µM (inactive)
- GI50 (HOP-62): > 100 µM (inactive)
- GI50 (U-251): > 100 µM (inactive)
- GI50 (SF-268): > 100 µM (inactive)
- GI50 (HCC 2998): 45.4 µM (inactive)
- GI50 (OVCAR-4): > 100 µM (inactive)
- GI50 (SK-MEL-5): 35.9 µM (inactive)
- GI50 (SF-295): > 100 µM (inactive)
- GI50 (NCI-H226): 37.5 µM (inactive)
- GI50 (COLO 205): > 100 µM (inactive)
- GI50 (MDA-MB-435): 24.2 µM (inactive)
- GI50 (K562): 30.8 µM (inactive)
- GI50 (SN12C): > 100 µM (inactive)
- GI50 (SR): 12.6 µM (inactive)
- GI50 (ACHN): > 100 µM (inactive)
- GI50 (HCT-116): 44.8 µM (inactive)
- GI50 (SW-620): > 100 µM (inactive)
- GI50 (SNB-19): > 100 µM (inactive)
- GI50 (EKVX): > 100 µM (inactive)
- GI50 (UACC-257): 67.8 µM (inactive)
- GI50 (HCT-15): 77.4 µM
- GI50 (M14): > 100 µM (inactive)
- GI50 (CCRF-CEM): > 100 µM (inactive)
- GI50 (MDA-N): 72.4 µM (inactive)
- GI50 (OVCAR-5): > 100 µM (inactive)
- GI50 (MDA-MB-231): > 100 µM (inactive)
- GI50 (SK-MEL-28): 78.7 µM (inactive)
- GI50 (SNB-75): > 100 µM (inactive)
- GI50 (HT-29): > 100 µM (inactive)
- GI50 (BT-549): > 100 µM (inactive)
- GI50 (T47D): 72.1 µM (inactive)
- GI50 (MCF7): 55.1 µM (inactive)
- GI50 (NCI/ADR-RES): > 100 µM (inactive)
- GI50 (NCI-H522): 38.7 µM (inactive)
- GI50 (UO-31): > 100 µM (inactive)
- GI50 (PC-3): 37.5 µM (inactive)
- GI50 (NCI-H460): 71 µM (inactive)
- GI50 (786-0): > 100 µM (inactive)
- GI50 (SK-OV-3): > 100 µM (inactive)
- GI50 (A549): 65.3 µM (inactive)
- GI50 (RXF 393): 63.2 µM (inactive)
- GI50 (KM12): 45.3 µM (inactive)
- GI50 (LOX IMVI): 76.7 µM (inactive)
- GI50 (TK-10): > 100 µM (inactive)
- GI50 (MOLT-4): 6.81 µM (inactive)
- GI50 (IGROV-1): > 100 µM (inactive)
- GI50 (DU-145): > 100 µM (inactive)
